In the supplement of paper PMC8882468:
± gives the standard deviation of the averaged measurements.

Assays:
Assay in all cases: CTG-3D luminescence at 96 h relative to day-0 seeding control (ratio to day 0); higher = more growth / less cytotoxicity; PDxO 3D drug screen (set 2), 96 h, CTG-3D normalised to day-0 seeding control.
[1] = test system: HCI-011.E2 (organoid from an ER-positive breast cancer xenograft)
[2] = test system: HCI-002 (organoid from a triple-negative breast cancer xenograft)
[3] = test system: HCI-016 (organoid from a triple-negative breast cancer xenograft)
[4] = test system: HCI-024 (organoid from a breast cancer xenograft)
[5] = test system: HCI-027 (organoid from a triple-negative breast cancer xenograft)
[6] = test system: HCI-005.E2 (organoid from a breast cancer xenograft with a HER2-positive history)

CC(=O)c1c(C)c2cnc(Nc3ccc(N4CCNCC4)cn3)nc2n(C2CCCC2)c1=O [palbociclib]
CTG-3D luminescence at 96 h
Settings	12.5 pM	0.00025 µM	0.005 µM	0.1 µM	1 µM	10 µM	100 µM	625 fM
[1]	1.41 ± 0.057	1.8 ± 0.18	1.29 ± 0.083	1.53 ± 0.05	1.49 ± 0.048	1.92 ± 0.39	1.44 ± 0.12	1.86 ± 0.15
[6]	1.84 ± 0.44	2.56 ± 0.47	2.41 ± 0.23	3.06 ± 0.6	2.51 ± 0.76	2.16 ± 0.63	0.934 ± 0.87	2.38 ± 0.57

CTG-3D luminescence at 96 h
Settings	12.5 pM	0.00025 µM	0.005 µM	0.1 µM	1 µM	10 µM	100 µM	625 fM
[1], days in culture: 74	2.34	2.11	2.43	2.43	1.74	2.51	1.52	2.09
[2], days in culture: 127	2.7	3.03	2.72	3.1	2.26	2.38	2.33	2.77
[2], days in culture: 155	4.87	4.92	5.53	4.73	3.5	3.42	2.36	5.36
[2], days in culture: 168	3.15	3.17	3.77	2.95	3.02	2.23	1.63	4.09
[3], days in culture: 305	2.74	2.8	2.81	3.01	2.9	1.83	2.12	3.73
[3], days in culture: 327	0.926	1.04	1.84	1.67	1.15	1.59	0.478	1.3
[3], days in culture: 341	2.28	1.75	1.74	2.25	1.67	1.9	0.71	2.48
[3], days in culture: 397	2	2.56	1.48	2.7	2.38	1.99	0.831	2.9
[4], days in culture: 202	0.831	0.703	1.17	1.26	1.7	1.1	0.337	1.22
[4], days in culture: 231	0.919	0.896	1.34	0.956	1.09	0.74	0.498	1.21
[4], days in culture: 254	1.24	1.36	0.864	0.919	1.17	1.25	0.688	2.68
[5], days in culture: 145	1.41	2.02	1.64	1.26	1.55	0.841	0.458	1.58
[5], days in culture: 158	1.35	1.77	2.1	1.52	0.941	0.942	0.608	3.32
[5], days in culture: 164	2.57	1.87	1.48	1.63	1.33	1.31	0.892	2.8
[5], days in culture: 176	3.61	2.85	1.73	2.1	1.82	0.641	0.373	2.61
[5], days in culture: 186	1.11	1.93	2.5	2.42	0.412	1.4	0.411	1.67

CO[C@H]1C[C@@H]2CC[C@@H](C)[C@@](O)(O2)C(=O)C(=O)N2CCCC[C@H]2C(=O)O[C@H]([C@H](C)C[C@@H]2CC[C@@H](O)[C@H](OC)C2)CC(=O)[C@H](C)/C=C(\C)[C@@H](O)[C@@H](OC)C(=O)[C@H](C)C[C@H](C)/C=C/C=C/C=C/1C [rapamycin]
CTG-3D luminescence at 96 h
Settings	12.5 pM	0.00025 µM	0.005 µM	0.1 µM	1 µM	10 µM	100 µM	625 fM
[1]	0.71 ± 0.12	0.7694 ± 0.0021	0.724 ± 0.05	0.909 ± 0.034	0.688 ± 0.042	1.05 ± 0.065	0.0136 ± 0.00019	1.05 ± 0.26
[6]	1.21 ± 0.066	1.28 ± 0.077	1.46 ± 0.3	1.72 ± 0.3	1.73 ± 0.96	1.49 ± 0.32	0.0167 ± 0.0067	1.52 ± 0.23

CTG-3D luminescence at 96 h
Settings	12.5 pM	0.00025 µM	0.005 µM	0.1 µM	1 µM	10 µM	100 µM	625 fM
[1], days in culture: 74	2.21	1.44	1.16	0.949	0.784	0.995	0.0116	2.1
[2], days in culture: 127	1.89	1.99	1.94	2.24	1.85	2.01	0.0264	2.17
[2], days in culture: 155	3.33	3.32	3.3	3.82	2.76	2.89	0.0206	3.05
[2], days in culture: 168	2.98	2.48	2.66	2.27	2.64	2.56	0.0148	3.57
[3], days in culture: 305	1.79	1.77	1.74	4.51	1.66	1.4	0.0174	3.16
[3], days in culture: 327	0.432	0.896	2.06	1.99	0.951	1.2	0.023	0.782
[3], days in culture: 341	1.45	1.24	1.81	1.73	1.34	1.81	0.00758	1.9
[3], days in culture: 397	1.84	1.69	1.26	1.35	1.52	1.39	0.0166	1.94
[4], days in culture: 202	1.07	1.14	0.789	1.11	0.752	1.36	0.00983	1.53
[4], days in culture: 231	1.39	1.11	1.27	0.84	0.989	0.927	0.00464	1.06
[4], days in culture: 254	1.73	0.635	1.21	0.879	0.958	1.05	0.00976	3.42
[5], days in culture: 145	1.48	1.37	1.25	1.15	1.16	0.781	0.00647	1.5
[5], days in culture: 158	1.19	1.63	1.42	2.35	1.1	2.43	0.0139	4.51
[5], days in culture: 164	3.14	1.63	2.5	1.4	1.59	1.86	0.0163	1.82
[5], days in culture: 176	3.28	2.48	0.934	2.11	1.69	1.25	0.00482	2.21
[5], days in culture: 186	1.07	0.887	1.74	1.07	0.381	1.97	0.00722	0.992

CC(C)n1nc(-c2ccc3oc(N)nc3c2)c2c(N)ncnc21 [sapanisertib]
CTG-3D luminescence at 96 h
Settings	12.5 pM	0.00025 µM	0.005 µM	0.1 µM	1 µM	10 µM	100 µM	625 fM
[1]	1.55 ± 0.24	1.65 ± 0.35	0.974 ± 0.011	0.413 ± 0.1	0.187 ± 0.05	0.228 ± 0.036	0.277 ± 0.05	1.96 ± 0.3
[6]	1.96 ± 0.49	2.23 ± 0.41	2.42 ± 0.13	1.23 ± 0.85	0.685 ± 0.28	0.506 ± 0.066	0.0873 ± 0.017	1.98 ± 0.6

CTG-3D luminescence at 96 h
Settings	12.5 pM	0.00025 µM	0.005 µM	0.1 µM	1 µM	10 µM	100 µM	625 fM
[1], days in culture: 74	2.73	2.43	1.98	0.488	0.142	0.167	0.138	2.6
[2], days in culture: 127	2.42	2.94	2.62	1.76	0.875	0.742	0.27	3.04
[2], days in culture: 155	5.75	5.31	5.49	2.38	1.32	0.875	0.163	4.67
[2], days in culture: 168	3.37	3.2	3.78	1.61	0.882	0.787	0.155	4.04
[3], days in culture: 305	2.57	3.24	2.48	1.62	0.527	0.566	0.455	3.26
[3], days in culture: 327	1.38	1.23	1.37	0.784	0.464	0.679	0.258	1.7
[3], days in culture: 341	2.37	1.72	2.04	1.14	0.566	0.673	0.378	2.96
[3], days in culture: 397	1.83	2.36	1.47	1.2	0.701	0.688	0.324	2.37
[4], days in culture: 202	1.13	0.881	0.616	0.616	0.515	0.634	0.155	1.14
[4], days in culture: 231	1.11	1.3	1.01	0.69	0.589	0.241	0.0656	0.868
[4], days in culture: 254	2.43	1.09	1.25	1.1	0.518	0.541	0.118	1.6
[5], days in culture: 145	1.73	1.87	1.67	0.675	0.62	0.3	0.158	1.76
[5], days in culture: 158	1.38	2.26	2.09	1.46	0.941	0.992	0.124	3.36
[5], days in culture: 164	1.86	1.51	1.15	1.08	1.1	0.369	0.41	2.35
[5], days in culture: 176	3.48	2.27	1.45	1.22	0.927	0.364	0.195	2.69
[5], days in culture: 186	0.934	1.54	1.53	1.25	0.548	0.717	0.142	2.62
